Patent US3966956A, “[1-(P-Chlorobenzoyl)-5-methoxy-2-methyl-3-indole]acetoxyacetic acid and salts in treating inflammation” (Troponwerke Dinklage & Company, priority 1972, dated 1976)
Counter-ions that a name gives are not always drawn. Like-named read-outs stand apart in the source and are kept apart here.

Tests used:
kaolin oedema of the paw = kaolin oedema of the paw of a rat; assay type: in vivo; conditions: for ED50: read-out: ED50 (dose which reduces the oedemas by half as compared with a control group)
[1] = tested on: formalin oedema of the paw; experiment: formalin oedema on the paw of a rat; assay type: in vivo; conditions: once orally
Excerpt: (§1) Furthermore, with two other forms of inflammation, the inflammations produced with formalin and carrageenin on the paw of a rat, the oedema-inhibiting efficiency of I is stronger than that of II. […] These differences are also statistically significant.

[2] = tested on: carrageenin oedema of the paw; experiment: carrageenin oedema on the paw of a rat; assay type: in vivo; conditions: once orally
Excerpt: as §1

adjuvant arthritis = experiment: arthritis produced in the rat with Freud's adjuvants; assay type: in vivo
[3] = tested on: sulphydryl groups present in the serum; experiment: Gerber method: reaction velocity of serum sulphydryl groups with 2,2'-dinitro-5,5-dithiobenzoic acid; assay type: biochemical; conditions: concentration range 0.5 to 3 mMol/liter
Excerpt: Another characteristic test for determining the activity of non-steroid antiphlogistic substances is the method described by D. A. Gerber, N. Cohen and R. Giustra (cf. Biochem. Pharmacol. 16 (1967) 115) of influencing the physical-chemical behaviour of native protein, for example influencing the reaction velocity of the sulphydryl groups present in the serum with 2,2'-dinitro-5,5-dithiobenzoic acid. […] Since, according to Gerber et al, (loc. cit.), the percentage increase in reaction velocity is directly proportional to antiphlogistic activity, a greater activity of I by comparison with II can also be derived from this […] test; this applies above all in the lower concentration ranges (105:39) which come closest to the therapeutically attainable concentrations. In this case, too, the intact compound I can be shown to be the only active component.

human albumin = experiment: protein binding by the ultracentrifuging method; assay type: in vitro ADME; conditions: same protein and equivalent substance concentration
Excerpt: Another interesting criterion for the activity of a pharmacon is protein binding. It is known that, in the serum, pharmacons are partly bound to protein and it is only those fractions that are not bound to protein which are responsible for the onset of biological activity. […] Where human albumin is used, the differences amount to about 60%, in other words, for the same protein concentration and an equivalent substance concentration, the values for non-protein-bound I are about 60% higher than those of II. The values found for II are consistent with those described in the literature (cf. E. Hvidberg et al, Eur. J. clin. Pharmacol. 4 (1972), 119). Accordingly, I can be expected to show greater activity in this test as well, i.e. a smaller dosage of I is required which can again be of advantage in toxicological terms.

[4] = resorption after oral administration in dogs; assay type: in vivo; conditions: dog
[5] = acute oral toxicity (LD50), mouse; conditions: in vivo, single oral administration, I given as sodium salt
Experimental: (§2) The toxicity data (LD50) of both compounds are as follows:
(§3) As regards I, after single oral administration of 55.5 mg/kg to the mouse and 38.9 mg/kg to the rat (using the sodium salt of I). The corresponding data for II are 18.4 and 24.5 mg/kg, respectively.

[6] = acute oral toxicity (LD50), rat; conditions: in vivo, single oral administration, I given as sodium salt
Experimental: as §2, §3

protein = experiment: Mizushima's Test (inhibition of protein hazing); assay type: biochemical
Experimental: It was also possible to confirm the superiority of I over II in Mizushima's Test in which potent antiphlogistics are known to inhibit protein hazing directly proportional to their antiphlogistic potency (cf. Arch. int. Pharmacodyn. 149 (1964), 1, and 157 (1965), 115).
A DE50 of 0.07 mg/ml was measured for the sodium salt of I, in other words the level of protein hazing was inhibited by 50% at this concentration.

[7] = cited from earlier work
[8] = patients, relatively slight side effects and serious cases; cited from earlier work
[9] = stability of the dissolved sodium salt in water or water/alcohol; assay type: physicochemical; conditions: aqueous or aqueous-alcoholic solution
Excerpt: the free acid I can be converted into its salts in a manner known per se. Pharmacologically acceptable and conventional inorganic and organic bases can be considered for this purpose.

SMILES: COc1ccc2c(c1)c(CC(=O)OCC(=O)O)c(C)n2C(=O)c1ccc(Cl)cc1 [I, [1-(p-chlorobenzoyl)-5-methoxy-2-methyl-3-indole]-acetoxyacetic acid]
- ED50 (kaolin oedema of the paw; rat, single oral application, range of confidence (P = 5%): I 0.37 to 0.67, II 0.83 to 1.40): 0.5 mg/kg
- relative effectiveness I versus II on kaolin oedema (kaolin oedema of the paw; rat, single oral, from ED50): about twice as effective as II
- inhibition of formalin oedema ([1]; 1.5 mg/kg): 25%
- inhibition of carrageenin oedema ([2]; 1.5 mg/kg): 62%
- antiphlogistic effect on adjuvant arthritis compared with II (adjuvant arthritis; oral, daily dose 3.5 mg/kg of I versus equimolar 3 mg/kg of II): decidedly stronger than that of the equimolar daily dose of 3 mg/kg of II
- inflammation-inhibiting efficiency on adjuvant arthritis (adjuvant arthritis; primary and generalised inflammation symptoms): strong inflammation-inhibiting efficiency
- increase in reaction velocity of serum sulphydryl groups [3]: 105-335%
- increase of non-protein-bound fraction over II (human albumin): about 60%
- detection as an unchanged molecule in the organism [4]: can be detected as an unchanged molecule for several hours in the organism
- resorption after oral administration [4]: well resorbed after oral administration
- LD50 [5]: 55.5 mg/kg
- LD50 [6]: 38.9 mg/kg

SMILES: COc1ccc2c(c1)c(CC(=O)O)c(C)n2C(=O)c1ccc(Cl)cc1 [II, 1-(p-chlorobenzoyl)-5-methoxy-2-methyl-3-indole acetic acid, reference compound]
- ED50 (kaolin oedema of the paw; Rattus norvegicus, po): 1.04 mg/kg
- inhibition of formalin oedema ([1]; 1.6 mg/kg): 13.8%
- inhibition of carrageenin oedema ([2]; 1.6 mg/kg): 42%
- DE50 (concentration inhibiting the level of protein hazing by 50%) (protein): 0.13 mg/mL
- increase in reaction velocity of serum sulphydryl groups [3]: 39-272%
- LD50 [5]: 18.4 mg/kg
- LD50 [6]: 24.5 mg/kg
- patients in whom therapy had to be discontinued because of the side effects [7]: ~10%
- side effects [8]: neurosensitive disturbances such as headaches, vertigos and concentration difficulties, digestive complaints with loss of appetite, sickness, stomach pains, diarrhoea and, finally, some serious cases of intestinal bleeding, stomach ulcers and, occasionally, neurological deficiency symptoms

SMILES: COc1ccc2c(c1)c(CC(=O)OCC(=O)O)c(C)n2C(=O)c1ccc(Cl)cc1 [sodium salt of I]
- DE50 (concentration inhibiting the level of protein hazing by 50%) (protein): 0.07 mg/mL
- stability/clarity of solution of the sodium salt [9]: the solution remains clear for a considerable period of time

SMILES: COc1ccc2c(c1)c(CC(=O)O)c(C)n2C(=O)c1ccc(Cl)cc1 [sodium salt of the known compound II, reference compound]
- stability/clarity of solution of the sodium salt [9]: almost immediately, a clouding of the solution and the compound II begins to decompose
